The NIST ThermoML archive (doi:10.1021/je200836x)

Assay: mn = molality of the nth substance listed, in mol/kg
Conditions: 101 kPa, Liquid; for molar conductivity: Alternating current cell with electrodes; for mass density: Vibrating tube method

O=C([O-])c1ccccc1.[Na+] [sodium benzoate] + O
Conditions | mass density, 298.15 K [kg/m3] | molar conductivity, 278.15 K [S·m2/mol] | molar conductivity, 283.15 K [S·m2/mol] | molar conductivity, 288.15 K [S·m2/mol] | molar conductivity, 293.15 K [S·m2/mol] | molar conductivity, 298.15 K [S·m2/mol] | molar conductivity, 303.15 K [S·m2/mol] | molar conductivity, 308.15 K [S·m2/mol] | molar conductivity, 313.15 K [S·m2/mol]
m1 = 0.0002136 | – | 0.004828 | 0.005584 | 0.006384 | 0.007233 | 0.00812 | 0.009043 | 0.01 | 0.01098
m1 = 0.0004649 | – | 0.00479 | 0.005542 | 0.006339 | 0.007182 | 0.008063 | 0.008982 | 0.009936 | 0.01091
m1 = 0.0007334 | – | 0.004765 | 0.005514 | 0.006308 | 0.007149 | 0.008027 | 0.00894 | 0.009881 | 0.01085
m1 = 0.0009986 | – | 0.004746 | 0.005493 | 0.006283 | 0.007122 | 0.007986 | 0.008891 | 0.009829 | 0.0108
m1 = 0.001299 | – | 0.00473 | 0.005474 | 0.006253 | 0.007089 | 0.007958 | 0.00886 | 0.009801 | 0.01078
m1 = 0.0016 | – | 0.004708 | 0.005448 | 0.006234 | 0.007064 | 0.007933 | 0.008837 | 0.00977 | 0.01073
m1 = 0.001996 | – | 0.00469 | 0.005428 | 0.006211 | 0.007037 | 0.007901 | 0.008801 | 0.009733 | 0.01071
m1 = 0.002488 | – | 0.004671 | 0.005407 | 0.00619 | 0.00701 | 0.007872 | 0.00877 | 0.009663 | 0.01063
m1 = 0.003107 | – | 0.004649 | 0.00538 | 0.006164 | 0.006978 | 0.007811 | 0.008706 | 0.009625 | 0.01059
m1 = 0.003832 | – | 0.004634 | 0.005362 | 0.006129 | 0.006945 | 0.007796 | 0.008683 | 0.009598 | 0.01055
m1 = 0.00495 | 997.26 | 0.004604 | 0.00532 | 0.006084 | 0.006895 | 0.007742 | 0.008623 | 0.009539 | 0.01048
m1 = 0.08466 | 1001.94 | – | – | – | – | – | – | – | –

Cc1ccc(C(=O)[O-])c(O)c1.[Na+] [sodium 2-hydroxy-4-methylbenzoate] + O
Conditions | mass density, 298.15 K [kg/m3] | molar conductivity, 278.15 K [S·m2/mol] | molar conductivity, 283.15 K [S·m2/mol] | molar conductivity, 288.15 K [S·m2/mol] | molar conductivity, 293.15 K [S·m2/mol] | molar conductivity, 298.15 K [S·m2/mol] | molar conductivity, 303.15 K [S·m2/mol] | molar conductivity, 308.15 K [S·m2/mol] | molar conductivity, 313.15 K [S·m2/mol]
m1 = 0.0008766 | – | 0.004463 | 0.005159 | 0.005899 | 0.006679 | 0.007495 | 0.008345 | 0.009213 | 0.01012
m1 = 0.001205 | – | 0.004451 | 0.005145 | 0.00588 | 0.006648 | 0.007462 | 0.008308 | 0.009184 | 0.01008
m1 = 0.001572 | – | 0.004436 | 0.005122 | 0.005855 | 0.006629 | 0.007439 | 0.008283 | 0.009158 | 0.01005
m1 = 0.001976 | – | 0.004416 | 0.005105 | 0.005835 | 0.006608 | 0.007414 | 0.008258 | 0.009136 | 0.01003
m1 = 0.002453 | – | 0.004401 | 0.005087 | 0.005815 | 0.006584 | 0.007387 | 0.008225 | 0.009092 | 0.009964
m1 = 0.00301 | – | 0.004382 | 0.005065 | 0.00579 | 0.006555 | 0.007356 | 0.008178 | 0.009044 | 0.009933
m1 = 0.003696 | – | 0.004364 | 0.005044 | 0.005765 | 0.006518 | 0.007314 | 0.008146 | 0.009009 | 0.009892
m1 = 0.004538 | – | 0.004345 | 0.005022 | 0.005734 | 0.006493 | 0.007285 | 0.008112 | 0.008969 | 0.009844
m1 = 0.005464 | 997.441 | 0.004332 | 0.004993 | 0.005707 | 0.006462 | 0.007251 | 0.008073 | 0.008927 | 0.009798
m1 = 0.09872 | 1004.12 | – | – | – | – | – | – | – | –

Cc1cccc(C(=O)O)c1[O-].[Na+] [sodium 2-hydroxy-3-methylbenzoate] + O
Conditions | mass density, 298.15 K [kg/m3] | molar conductivity, 278.15 K [S·m2/mol] | molar conductivity, 283.15 K [S·m2/mol] | molar conductivity, 288.15 K [S·m2/mol] | molar conductivity, 293.15 K [S·m2/mol] | molar conductivity, 298.15 K [S·m2/mol] | molar conductivity, 303.15 K [S·m2/mol] | molar conductivity, 308.15 K [S·m2/mol] | molar conductivity, 313.15 K [S·m2/mol]
m1 = 0.0001789 | – | 0.004702 | 0.005436 | 0.006213 | 0.007035 | 0.007891 | 0.008781 | 0.009702 | 0.01065
m1 = 0.0004159 | – | 0.004659 | 0.005386 | 0.006159 | 0.006975 | 0.007824 | 0.008709 | 0.009625 | 0.01056
m1 = 0.0007115 | – | 0.004632 | 0.005354 | 0.006119 | 0.006928 | 0.007773 | 0.008653 | 0.009562 | 0.01049
m1 = 0.001003 | – | 0.004611 | 0.00533 | 0.006091 | 0.006896 | 0.007731 | 0.008606 | 0.009511 | 0.01044
m1 = 0.001322 | – | 0.004591 | 0.005306 | 0.00606 | 0.006862 | 0.007698 | 0.00857 | 0.00947 | 0.0104
m1 = 0.001698 | – | 0.004566 | 0.005277 | 0.006032 | 0.00683 | 0.007665 | 0.008535 | 0.009432 | 0.01036
m1 = 0.002088 | – | 0.004547 | 0.005256 | 0.006008 | 0.006803 | 0.007632 | 0.008498 | 0.009395 | 0.01031
m1 = 0.002646 | – | 0.004526 | 0.005232 | 0.005981 | 0.006772 | 0.007599 | 0.008457 | 0.009327 | 0.01024
m1 = 0.003288 | – | 0.004504 | 0.005206 | 0.005951 | 0.006738 | 0.007542 | 0.008399 | 0.009286 | 0.0102
m1 = 0.004113 | – | 0.004483 | 0.005178 | 0.005905 | 0.006688 | 0.007504 | 0.008356 | 0.00924 | 0.01015
m1 = 0.005007 | 997.408 | 0.004457 | 0.00514 | 0.005873 | 0.00665 | 0.007462 | 0.008307 | 0.009184 | 0.01009
m1 = 0.09201 | 1003.59 | – | – | – | – | – | – | – | –
